Measured values published in patent US4175125A, “Method for treating methicillin resistant staphylococcus aureus” (Eli Lilly and Company, priority 1978, dated 1979).

How the values were obtained:
[1] = physchem; details: water
[2] = system: Staphylococcus aureus cultures; test: Agar dilution MIC, Example 13 compound vs methicillin resistant Staphylococcus aureus; type: cell-based
Description: The table which follows gives the minimum inhibitory concentration (MIC) in micrograms of compound per milliliter of culture (μg/ml), in comparison with similar MIC values for the known antibiotics methicillin, cephalothin and cephaloridine against the same strains of bacteria.

[3] = system: S. typhosa SA12; test: In vitro MIC in agar, additional microorganisms; type: cell-based
[4] = system: P. morganii, indole positive; test: In vitro MIC in agar, additional microorganisms; type: cell-based; details: Morganella morganii
Description: (§1) The compound of Example 13 gave the following in vitro minimum inhibitory concentrations (MIC values), in microgram/milliliter of agar (μg/ml.) against the following additional microorganisms

[5] = system: B. bronchiseptica; test: In vitro MIC in agar, additional microorganisms; type: cell-based; details: Bordetella bronchiseptica
Description: as §1

[6] = system: P. solenaecarum X185; test: In vitro MIC in agar, additional microorganisms; type: cell-based
Description: as §1

[7] = system: S. typhimurium; test: In vitro MIC in agar, additional microorganisms; type: cell-based; details: Salmonella enterica
Description: as §1

[8] = system: E. coli EC14; test: In vitro MIC in agar, additional microorganisms; type: cell-based; details: Escherichia coli
Description: as §1

[9] = system: C. ulmi; test: In vitro MIC in agar, additional microorganisms; type: cell-based
Description: as §1

[10] = system: C. freundii CF17; test: In vitro MIC in agar, additional microorganisms; type: cell-based; details: Citrobacter freundii
Description: as §1

[11] = system: H. pneumoniae KL14; test: In vitro MIC in agar, additional microorganisms; type: cell-based; details: Klebsiella pneumoniae
Description: as §1

[12] = system: C. tropicalis A17; test: In vitro MIC in agar, additional microorganisms; type: cell-based; details: Candida tropicalis
Description: as §1

[13] = system: S. aureus; test: In vitro MIC in agar, additional microorganisms; type: cell-based; details: Staphylococcus aureus
Description: as §1

[14] = system: T. mentagrophytes 27; test: In vitro MIC in agar, additional microorganisms; type: cell-based; details: Trichophyton mentagrophytes
Description: as §1

[15] = system: E. amylovora; test: In vitro MIC in agar, additional microorganisms; type: cell-based; details: Erwinia amylovora
Description: as §1

[16] = system: S. marcescens SE3; test: In vitro MIC in agar, additional microorganisms; type: cell-based; details: Serratia marcescens
Description: as §1

[17] = system: S. facalis X66; test: In vitro MIC in agar, additional microorganisms; type: cell-based
Description: as §1

[18] = system: P. aeroginosa X239; test: In vitro MIC in agar, additional microorganisms; type: cell-based
Description: as §1

[19] = system: E. aerogenes EB17; test: In vitro MIC in agar, additional microorganisms; type: cell-based; details: Klebsiella aerogenes
Description: as §1

[20] = system: A. flavus; test: In vitro MIC in agar, additional microorganisms; type: cell-based; details: Aspergillus flavus
Description: as §1

[21] = water
[22] = system: Streptococcus pyogenes C203; test: MIC in broth against Streptococcus pyogenes C203; type: cell-based
Experimental: The MIC for the compound of Example 13 against Streptococcus pyogenes C203 in broth was 0.008 μg/ml.

Cc1nnc(SCC2=C(C(=O)[O-])N3C(=O)C(NC(=O)CSc4ccc(F)c(Cl)c4)[C@H]3SC2)s1.[Na+] (stereo partly shown)
> 100 mg/mL: solubility [1]
64 mg/L: MIC [8] | MIC [11] | MIC [15]
1 mg/L: MIC ([2]; culture 3134, Trypticase Soy Agar, 0.5% NaCl) | MIC ([2]; culture 3137, Trypticase Soy Agar with 4.5% NaCl added (5% NaCl)) | MIC ([2]; culture 3137, Trypticase Soy Agar, 0.5% NaCl) | MIC ([2]; culture 3138, Trypticase Soy Agar, 0.5% NaCl) | MIC ([2]; culture Havarmak 1136501, Trypticase Soy Agar with 4.5% NaCl added (5% NaCl))
0.008 mg/L: MIC [22]
32 mg/L: MIC [3]
0.03 mg/L: MIC ([2]; culture 3055 (control), Trypticase Soy Agar with 4.5% NaCl added (5% NaCl)) | MIC ([2]; culture 3055 (control), Trypticase Soy Agar, 0.5% NaCl) | MIC ([2]; culture 3139, Trypticase Soy Agar with 4.5% NaCl added (5% NaCl))
0.06 mg/L: MIC ([2]; culture H232 (control), Trypticase Soy Agar with 4.5% NaCl added (5% NaCl)) | MIC ([2]; culture H232 (control), Trypticase Soy Agar, 0.5% NaCl) | MIC ([2]; culture Seattle 966, Trypticase Soy Agar with 4.5% NaCl added (5% NaCl))
0.13 mg/L: MIC ([2]; culture 3132, Trypticase Soy Agar with 4.5% NaCl added (5% NaCl)) | MIC ([2]; culture 3132, Trypticase Soy Agar, 0.5% NaCl) | MIC ([2]; culture 3133, Trypticase Soy Agar with 4.5% NaCl added (5% NaCl)) | MIC ([2]; culture 3133, Trypticase Soy Agar, 0.5% NaCl)
0.25 mg/L: MIC ([2]; culture 3130, Trypticase Soy Agar with 4.5% NaCl added (5% NaCl)) | MIC ([2]; culture 3131, Trypticase Soy Agar with 4.5% NaCl added (5% NaCl)) | MIC ([2]; culture 3131, Trypticase Soy Agar, 0.5% NaCl) | MIC ([2]; culture 3134, Trypticase Soy Agar with 4.5% NaCl added (5% NaCl)) | MIC ([2]; culture 3136, Trypticase Soy Agar, 0.5% NaCl) | MIC ([2]; culture 3139, Trypticase Soy Agar, 0.5% NaCl) | MIC ([2]; culture Seattle 966, Trypticase Soy Agar, 0.5% NaCl)
0.031 mg/L: MIC ([13]; S. aureus 3055 (penicillin G susceptible))
0.5 mg/L: MIC ([2]; culture 3130, Trypticase Soy Agar, 0.5% NaCl) | MIC ([2]; culture 3135, Trypticase Soy Agar with 4.5% NaCl added (5% NaCl)) | MIC ([2]; culture 3135, Trypticase Soy Agar, 0.5% NaCl) | MIC ([2]; culture 3136, Trypticase Soy Agar with 4.5% NaCl added (5% NaCl)) | MIC ([2]; culture 3138, Trypticase Soy Agar with 4.5% NaCl added (5% NaCl)) | MIC ([2]; culture Havarmak 1136501, Trypticase Soy Agar, 0.5% NaCl) | MIC ([2]; culture S 61, Trypticase Soy Agar with 4.5% NaCl added (5% NaCl)) | MIC ([2]; culture S 61, Trypticase Soy Agar, 0.5% NaCl)
increases: solubility upon warming (in words) [21]
128 mg/L: MIC [7] | MIC [19]
400 mg/L: MIC [17]
0.062 mg/L: MIC ([13]; S. aureus 3074 (Pen G. resist.))
> 128 mg/L: MIC [4] | MIC [5] | MIC [6] | MIC [9] | MIC [10] | MIC [12] | MIC [14] | MIC [16] | MIC [18] | MIC [20]
